Results taken from PubChem BioAssay (NCI).
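Abbreviation: GI50, concentration required for 50% inhibition of growth. At the TGI there is no net growth.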

Legend:
Test in all cases: NCI-60 cell line screen, 384-well format
CCRF-CEM leukemia = test system: CCRF-CEM leukemia
HL-60(TB) leukemia = test system: HL-60(TB) leukemia
HOP-92 NSCLC = test system: HOP-92 NSCLC
HT29 colon = test system: HT29 colon
KM12 colon = test system: KM12 colon
NCI-H522 lung = test system: NCI-H522 lung
OVCAR-8 ovarian = test system: OVCAR-8 ovarian
PC-3 prostate = test system: PC-3 prostate
SF-295 CNS = test system: SF-295 CNS
SK-MEL-28 melanoma = test system: SK-MEL-28 melanoma
SR leukemia = test system: SR leukemia
T-47D breast = test system: T-47D breast
UACC-62 melanoma = test system: UACC-62 melanoma

Structure (SMILES) | GI50 (CCRF-CEM leukemia) [µM] | TGI (CCRF-CEM leukemia) [µM] | GI50 (HL-60(TB) leukemia) [µM] | TGI (HL-60(TB) leukemia) [µM] | GI50 (HOP-92 NSCLC) [µM] | TGI (HOP-92 NSCLC) [µM] | GI50 (HT29 colon) [µM] | TGI (HT29 colon) [µM] | GI50 (KM12 colon) [µM] | TGI (KM12 colon) [µM] | GI50 (NCI-H522 lung) [µM] | TGI (NCI-H522 lung) [µM] | GI50 (OVCAR-8 ovarian) [µM] | TGI (OVCAR-8 ovarian) [µM] | GI50 (PC-3 prostate) [µM] | TGI (PC-3 prostate) [µM] | GI50 (SF-295 CNS) [µM] | TGI (SF-295 CNS) [µM] | GI50 (SK-MEL-28 melanoma) [µM] | TGI (SK-MEL-28 melanoma) [µM] | further results
c1cn2cc(-c3ccc4cn[nH]c4c3)nc(Nc3ccc(N4CCOCC4)cc3)c2n1 | > 100 | > 100 | > 100 | > 100 | 5.8 | 19.1 | 28.1 | > 100 | 0.527 | 25 | 3.46 | 12.8 | 4.82 | 17.1 | 14.1 | 28.7 | 13.7 | 27.4 | 12.4 | 29.6 | GI50 (SR leukemia): 5.01 µM; TGI (SR leukemia): 14.5 µM; GI50 (T-47D breast): 3.73 µM; TGI (T-47D breast): 21.2 µM; GI50 (UACC-62 melanoma): 7.97 µM; TGI (UACC-62 melanoma): 20.9 µM
C=CC(=O)N[C@H]1CCOC[C@H]1Nc1ncc2cc(-c3c(Cl)c(OC)cc(OC)c3Cl)ccc2n1 | 9.81 | 22.2 | 9.62 | 22.7 | 7.37 | 28.2 | 14 | 96.2 | 19.2 | 47.7 | 13.9 | 32.2 | 16 | 35.1 | 20.3 | 66.2 | 28.1 | > 86.7 | 35.6 | > 100 | GI50 (SR leukemia): 5.39 µM; TGI (SR leukemia): 19 µM; GI50 (T-47D breast): 5.24 µM; TGI (T-47D breast): 23 µM; GI50 (UACC-62 melanoma): 10.7 µM; TGI (UACC-62 melanoma): 25.1 µM
